Results as given in patent US4699910A, “N-(3-trifluoromethyl-phenyl)-N'-propargyl-piperazine and salts thereof useful as analgesics” (Boehringer Ingelheim KG, priority 1983, dated 1987).

Legend:
Format in all cases: in vivo
[1] = Writhing test (analgesia)
[2] = test system: Rabbit's tooth pulp; experiment: Rabbit's tooth pulp test (analgesia); details: s.c.
Source text: 3. Rabbit's tooth pulp test
Hoffmeister, F., Arzneimittelf. 16 (supplement), 1968.

[3] = Gait test (analgesia); details: sc
Source text: Atkinson, D. C., and Cowan, A. J., Pharm. Pharmacol. 26, 727-728 (1974)

[4] = po, read-out: Writhing test ED50 p.o.
[5] = sc, read-out: Writhing test ED50 s.c.

SMILES	ED50 [1, 4]	ED50 [1, 5]	Rabbit's tooth pulp test EDIV [2]	ED50 [3]
Cc1c(N(C)CS(=O)(=O)O)c(=O)n(-c2ccccc2)n1C [Metamizole-sodium (Novalgin ®)]	80 mg/kg	25 mg/kg	approx. 560	97 mg/kg
C#CCN1CCN(c2cccc(C(F)(F)F)c2)CC1.Cl [N-(3-Trifluoromethyl-phenyl)-N'-propargyl-piperazine hydrochloride]	43 mg/kg	5.3 mg/kg	approx. 10	2.8 mg/kg
